Measurements reported in patent US20260201008A1, “SECRETIN-DERIVED GLP1R SELECTIVE AGONISTS” (GUBRA A/S, priority 2023, published 2026).
Numbered stars: 1 amine (or outer) side, 2 acyl side, 3 side chain; on linkers, the order of the positions; unused ones are H or OH. Square brackets hold non-standard residues; d marks the D form. Side chains are listed from the residue outwards. Peptide text beside a SMILES is read from it. * marks the point of attachment. C20 diacid = O=C(O)CCCCCCCCCCCCCCCCCCC(=O)*; γGlu = O=C(O)[C@H](CCC(=O)[*:2])N[*:1]; AEEA = NCCOCCOCC(=O)O; Aib = CC(C)(N)C(=O)O

Assays:
[1] = Turbidity of crude library peptides (absorbance at 600 nm); type: physicochemical; details: Physical stability of peptides
Procedure, shortened: (§1)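 Turbidity is the absorbance at 600 nm, taken before heating. Fibril signal is the mean ThT emission at 480 nm (450 nm excitation), read every 10 min over 72 h at 40° C with 700 rpm shaking between reads. Peptides at 267 μM, pH 4.0 acetate or pH 7.0 phosphate buffer (50 mM), 4 μM ThT final.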

GLP1R = GLP1R (Homo sapiens, UniProt P43220); assay: hGLP1R potency, cAMP accumulation in CHO-K1 cells stably overexpressing hGLP1R; type: cell-based; design: host or cells: CHO-K1; details: for EC50: cAMP accumulation, CHO-K1 cells overexpressing hGLP1R, read-out: hGLP1R pEC50 (converted); for SCTR EC50/GLP1R EC50 ratio: selectivity for hGLP1R over hSCTR, cAMP accumulation in CHO-K1 cells
Chain of GLP1R (P43220 24-463): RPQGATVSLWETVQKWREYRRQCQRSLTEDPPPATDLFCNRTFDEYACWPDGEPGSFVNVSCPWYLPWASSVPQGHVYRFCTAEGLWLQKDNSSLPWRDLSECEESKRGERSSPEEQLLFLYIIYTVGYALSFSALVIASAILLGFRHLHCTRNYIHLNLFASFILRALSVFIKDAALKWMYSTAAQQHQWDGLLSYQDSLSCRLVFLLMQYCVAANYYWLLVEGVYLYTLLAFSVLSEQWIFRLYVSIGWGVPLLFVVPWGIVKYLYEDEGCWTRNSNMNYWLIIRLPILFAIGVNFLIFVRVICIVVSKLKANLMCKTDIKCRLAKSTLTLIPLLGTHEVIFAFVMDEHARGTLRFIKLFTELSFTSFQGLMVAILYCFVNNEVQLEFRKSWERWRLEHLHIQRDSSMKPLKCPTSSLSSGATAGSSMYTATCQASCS
Procedure, shortened: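 2000 cells/well, DPBS + 0.05% casein + 0.5 mM IBMX; 30 min RT stimulation; HTRF cAMP detection after 1 h. Purified: 3-fold ×11, n=2; crude: 10-fold ×5, n=1. EC50 by variable-slope fit.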

SCTR = SCTR (Homo sapiens, UniProt P47872); assay: hSCTR potency, cAMP accumulation in CHO-K1 cells stably overexpressing hSCTR; type: cell-based; design: alternatively Euroscreen ES-712-AF; FAST-0161L; host or cells: CHO-K1; details: cAMP accumulation, CHO-K1 cells overexpressing hSCTR; read-out: hSCTR pEC50 (converted)
Chain of SCTR (P47872 23-440): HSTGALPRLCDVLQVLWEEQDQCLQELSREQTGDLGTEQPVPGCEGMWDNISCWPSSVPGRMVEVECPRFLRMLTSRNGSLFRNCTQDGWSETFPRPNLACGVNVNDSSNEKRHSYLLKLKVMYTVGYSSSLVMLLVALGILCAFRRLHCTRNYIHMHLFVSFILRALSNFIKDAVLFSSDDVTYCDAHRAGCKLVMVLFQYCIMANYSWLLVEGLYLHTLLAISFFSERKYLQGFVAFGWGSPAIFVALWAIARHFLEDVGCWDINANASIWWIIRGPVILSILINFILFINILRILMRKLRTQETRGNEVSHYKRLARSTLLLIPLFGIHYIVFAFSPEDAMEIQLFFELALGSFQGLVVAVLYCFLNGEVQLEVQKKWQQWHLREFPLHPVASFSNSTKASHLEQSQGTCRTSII
Procedure, shortened: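 Thawed CHO-K1 cells carrying stable hSCTR are plated into casein/IBMX buffer (0.05%, 0.5 mM), dosed immediately for 30 min at room temperature, then cAMP is detected by TR-FRET. Purified peptides run as 11 three-fold dilutions in duplicate, and curves are fitted with variable slope.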

[2] = Fibril formation of crude library peptides (Thioflavin T); type: physicochemical; design: key: average ThT fluorescence emission at 480 nm (ex 450 nm), raw units; details: Physical stability of peptides
Procedure, shortened: as §1

Turbidity (pH 7) [1]	EC50 (GLP1R)	SCTR EC50/GLP1R EC50 ratio (GLP1R)	EC50 (SCTR)	Fibril formation [2]	Compound
0.08	0.0126 nM	1484910	20000 nM	3679	CC(C)C[C@H](NC(=O)[C@H](Cc1ccccc1)NC(=O)[C@H](CCCNC(=N)N)NC(=O)[C@H](CCC(N)=O)NC(=O)[C@H](CC(C)C)NC(=O)C(C)(C)NC(=O)[C@H](C)NC(=O)[C@H](CCC(=O)O)NC(=O)[C@H](CCC(=O)O)NC(=O)[C@H](CCCCNC(=O)COCCOCCNC(=O)COCCOCCNC(=O)CC[C@H](NC(=O)CCCCCCCCCCCCCCCCCCC(=O)O)C(=O)O)NC(=O)[C@H](CC(C)C)NC(=O)[C@H](Cc1ccc(O)cc1)NC(=O)[C@H](CO)NC(=O)[C@@H](NC(=O)[C@H](CC(=O)O)NC(=O)[C@H](CO)NC(=O)[C@@H](NC(=O)[C@H](Cc1ccccc1)NC(=O)[C@@H](NC(=O)CNC(=O)[C@H](CCC(=O)O)NC(=O)CNC(=O)[C@@H](N)Cc1c[nH]cn1)[C@@H](C)O)[C@@H](C)O)C(C)C)C(=O)N[C@@H](CCC(=O)O)C(=O)N[C@@H](Cc1c[nH]cn1)C(=O)N[C@@H](CC(C)C)C(=O)N[C@H](C(N)=O)C(C)C [compound 142] (H-HGEGTFTSDVSYLK([AEEA-AEEA-γGlu-C20 diacid])EEA[Aib]LQRFLEHLV-NH2)
0.08	0.01 nM	88736	794 nM	5733	CC(C)C[C@H](NC(=O)[C@H](Cc1ccccc1)NC(=O)[C@H](CCCNC(=N)N)NC(=O)[C@H](CCC(N)=O)NC(=O)[C@H](CC(C)C)NC(=O)C(C)(C)NC(=O)[C@H](C)NC(=O)[C@H](CCC(=O)O)NC(=O)[C@H](CCC(=O)O)NC(=O)[C@H](Cc1ccc(O)cc1)NC(=O)[C@H](CC(C)C)NC(=O)[C@H](Cc1ccc(O)cc1)NC(=O)[C@H](CO)NC(=O)[C@@H](NC(=O)[C@H](CC(=O)O)NC(=O)[C@H](CO)NC(=O)[C@@H](NC(=O)[C@H](Cc1ccccc1)NC(=O)[C@@H](NC(=O)CNC(=O)[C@H](CCC(=O)O)NC(=O)C(C)(C)NC(=O)[C@@H](N)Cc1c[nH]cn1)[C@@H](C)O)[C@@H](C)O)C(C)C)C(=O)N[C@@H](CCC(=O)O)C(=O)N[C@@H](CCCCNC(=O)COCCOCCNC(=O)COCCOCCNC(=O)CC[C@H](NC(=O)CCCCCCCCCCCCCCCCCCC(=O)O)C(=O)O)C(=O)N[C@@H](CC(C)C)C(=O)N[C@H](C(N)=O)C(C)C [compound 143] (H-H[Aib]EGTFTSDVSYLYEEA[Aib]LQRFLEK([AEEA-AEEA-γGlu-C20 diacid])LV-NH2)
0.08	0.0158 nM	16042	251 nM	5805	CC(C)C[C@H](NC(=O)[C@H](Cc1ccccc1)NC(=O)[C@H](CCCNC(=N)N)NC(=O)[C@H](CCC(N)=O)NC(=O)[C@H](CC(C)C)NC(=O)C(C)(C)NC(=O)[C@H](C)NC(=O)[C@H](CCC(=O)O)NC(=O)[C@H](CCC(=O)O)NC(=O)[C@H](CCCCNC(=O)COCCOCCNC(=O)COCCOCCNC(=O)CC[C@H](NC(=O)CCCCCCCCCCCCCCCCCCC(=O)O)C(=O)O)NC(=O)[C@H](CC(C)C)NC(=O)[C@H](Cc1ccc(O)cc1)NC(=O)[C@H](CO)NC(=O)[C@@H](NC(=O)[C@H](CC(=O)O)NC(=O)[C@H](CO)NC(=O)[C@@H](NC(=O)[C@H](Cc1ccccc1)NC(=O)[C@@H](NC(=O)CNC(=O)[C@H](CCC(=O)O)NC(=O)C(C)(C)NC(=O)[C@@H](N)Cc1c[nH]cn1)[C@@H](C)O)[C@@H](C)O)C(C)C)C(=O)N[C@@H](CCC(=O)O)C(=O)N[C@@H](Cc1ccc(O)cc1)C(=O)N[C@@H](CC(C)C)C(=O)N[C@H](C(N)=O)C(C)C [compound 144] (H-H[Aib]EGTFTSDVSYLK([AEEA-AEEA-γGlu-C20 diacid])EEA[Aib]LQRFLEYLV-NH2)
